Laboratory results: US20240041827A1, “COMPOSITIONS FOR THE TREATMENT OF FAT RELATED CONDITIONS AND DISORDERS” (priority 2020, published 2024)

Key:
[1] = system: human visceral preadipocytes; experiment: in vitro; conditions: for Average RZL-012 and collagenase induced cell death (% vs untreated cells): RZL12 0 μM, 24 h of incubation
Protocol: Human visceral preadipocytes were seeded in 96-well white clear bottom plates at 10,000 cells per well in 100 μl pre-adipocyte medium and incubated overnight at 37° C. 5% CO2. On the following day, adipogenic differentiation was induced by addition of 100 μl/well differentiation medium and incubation continued for 5 days. Adipogenic differentiation was verified by microscopic evaluation, addition of adipored reagents and fluorescent measurement at Ex485 nm/Em572 nm. […] Staurosporine (1 μM) and 0.2% DMSO were used as controls. Plates were incubated at 37° C. 5% CO2 for 2, 6 and 24 hours. Following incubation, cytotoxicity was measured using Cell Titer Glo 2.0 (Promega).
Test Item RZL-12 (1-300 μM) was prepared on the day of the testing as 150 mM stock solutions in DMSO. The 150 mM represents a 500×stock of the highest desired tested concentration. The 150 mM stock solution was first serially diluted in DMSO to acquire 500×stock solutions for each of the RZL-012 concentrations. The 500×stock solutions were then diluted 1:25 in medium to acquire 20×intermediate stock solutions. Finally, the 20×intermediate stock solutions were further diluted 1:20 in the assay (on the plate) that included seeded cells.
The 600 μM represents a 20× stock of the highest desired tested concentration. […] Finally, the 20×intermediate stock solutions were further diluted 1:20 in the assay plate that included seeded cells.
Human visceral pre-adipocytes (HPrAD-vis): HPrAD-vis cells (Lonza cat #PT-5005) were thawed at 37° C. and transferred into 50 ml tubes containing pre-adipocytes PGM-2 growth medium (PBM-2, 10% FBS, 1-glutamine, GA-1000). Cells were centrifuged at 300 g for 10 minutes, the supernatant was removed (Leaving about 1 ml of wash medium for not disrupting the cells) and 2 ml fresh PGM-2 medium was added. After resuspension, cells were counted and seeded in T-75 and T25 flasks at a density of 9,000 cells/cm^2 ([…], 225,000 cells/T25 flask). Medium was changed every 2-3 days until reached confluence of 70%.
Cells were sub-cultured only once, as soon as they reached 70% confluence. For this purpose, the culture medium of each flask was removed and cells were washed once with 5 ml PBS. The flask was shaken to ensure that the entire surface was covered and the PBS was removed. Then, 3 ml/T75 flask or 1 ml/T25 flask of fresh dedicated Trypsin/EDTA solution (from Lonza) was added and the flasks were incubated for 3-4 minutes at RT until ˜90% cells were detached. The Trypsin/EDTA solution was then neutralized by addition of 6 ml/T75 flask or 3 ml/T25 flask of full PGM-2 growth medium. Cells were collected in 50 ml tubes and centrifuged 10 minutes at 300 g. The supernatant was removed and the cells were resuspended in 3 ml fresh medium. Cells were then counted using a haemacytometer slide after being diluted 1:2 in trypan blue (SIGMA). For sub-culturing, cells were seeded in new T75 flasks at a density of 9,000 cells/cm^2 containing 15 ml fresh growth medium. Alternatively, the cells were seeded in 96-well culture plates at a density of 10,000 cells/well for the cell treatments.
HPrAD-vis cells: HPrAD-vis passaged once were seeded in 96-well plates as described above (10000cells/well in 100 μl medium) and allowed to settle overnight at 37° C., 5% CO2. Following day, adipogenic differentiation was induced by addition of 100 μl/well differentiation medium and incubated for 5 days. Adipogenic differentiation was verified by microscopic evaluation, addition of adipored reagents and fluorescent measurement at Ex485 nm/Em572 nm. In the morning of day 6, test and reference items were prepared as described above. Cells' medium was replaced with 90 μl fresh differentiation medium. […] Staurosporine (1 μM) and 0.2% DMSO were used as controls. Plates were incubated at 37° C. 5% CO2 for 2, 6 and 24 hours. Following incubation, cell viability was determined using the CellTiter-Gg® viability reagent (Promega) with reading of plates for luminescence. […]

Wi-38 fibroblasts = experiment: Cell Titer Glo 2.0 cytotoxicity assay on Wi-38 fibroblasts; format: cell-based; conditions: cytotoxic reference control; after 24 hours of incubation

| Compound | Average RZL-012 and collagenase induced cell death (% vs untreated cells) ([1]; Collagenase 0.1 μM) [%] | Average RZL-012 and collagenase induced cell death (% vs untreated cells) ([1]; Collagenase 0.3 μM) [%] | Average RZL-012 and collagenase induced cell death (% vs untreated cells) ([1]; Collagenase 1 μM) [%] | Average RZL-012 and collagenase induced cell death (% vs untreated cells) ([1]; Collagenase 3 μM) [%] | Average RZL-012 and collagenase induced cell death (% vs untreated cells) ([1]; Collagenase 10 μM) [%] | Average RZL-012 and collagenase induced cell death (% vs untreated cells) ([1]; Collagenase 30 μM) [%] | concentrations at which the cytotoxic effect was observed ([1]; at all time points (2, 6, 24 h)) [nM] | effect of collagenase on RZL-012 cytotoxicity ([1]; collagenase 10 μM and 30 μM, 2 h time point) | effect of collagenase added together with RZL-012 on cell cytotoxicity ([1]; collagenase 0.1-1 μM, adipocytes, 6 h and 24 h time points, vs each compound alone) | maximal cell death ([1]; 24 h, 1 µM) [%] | maximal cell death (Wi-38 fibroblasts) [%] |
| --- | --- | --- | --- | --- | --- | --- | --- | --- | --- | --- | --- |
| Collagenase | 7.28 | 6.53 | 25.57 | 33.27 | 65.68 | 79.93 | > 3000 | attenuated RZL-012 cytotoxicity | attenuate cell cytotoxicity |  |  |
| CN[C@@H]1C[C@H]2O[C@@](C)([C@@H]1OC)n1c3ccccc3c3c4c(c5c6ccccc6n2c5c31)C(=O)NC4 [staurosporine, reference compound] |  |  |  |  |  |  |  |  |  | 89 | 89 |
